Source: patent US20240199552A1, “AMIDE COMPOUND AND USE THEREOF” (Metisa Biotechnology Co., Ltd, priority 2021, published 2024)

Legend:
Type in all cases: in vivo
[1] = tested on: Franklinella occidentalis; test: Insecticidal activity against Franklinella occidentalis nymphs, sprayed bean leaves
Procedure: (§1) After the compound to be determined was dissolved in a mixed solvent of acetone/methanol (1:1), it was diluted with water containing 0.1% (wt) Tween-80 to a desired concentration.
(§2) Mythimna separata, Diamondback moth, Chilo suppressalis, Spodoptera exigua, Myzus persicae, and Franklinella occidentalis were used as targets, and the activity was tested by an Airbrush spray method.
Determination method: fresh bean leaves cultivated in a greenhouse were selected, a hand-held Airbrush sprayer was used to spray uniformly, each treatment was 1 mL, and after being air-dried naturally, the leaves were placed in a finger-shaped tube. Neat and healthy Franklinella occidentalis nymphs were introduced, there were 15 nymphs for each treatment, 3 replicates were set for the experiment, and water treatment was set as a blank control. After the treatment, the leaves were put into an indoor culture room for culture at 24° C., a relative humidity of 60-70%, and natural light. After 72 h, the number of live insects was investigated and the mortality rate was calculated.

Chilo suppressalis = test: Insecticidal activity against Chilo suppressalis, sprayed rice stems; conditions: 72 h, 0.625 mg/L, 3 days after the administration, 3rd-instar larvae, read-out: mortality rate against Chilo suppressalis
Procedure: as §1, §2
Determination method: 1) Preparation of rice seedlings: rice was cultured in a plastic small cup with a diameter of 4.5 cm and a height of 4 cm in a constant temperature room (the temperature was 26-28° C., the relative humidity was about 60-80%, and the illumination was 16hL:8hD), when the rice grown to a 4-5 leaf stage, robust and uniformly grown rice seedlings were selected for pharmaceutical treatment, and 3 replicates were set for each treatment. 2) Preparation of test insects: 3rd-instar larvae of Chilo suppressalis were continuously reared indoors. 3) Rice stems were sprayed and insects were introduced. A spray method was used to treat whole rice seedlings with uniform spray, and each treatment was 15 mL. Blank controls were treated firstly, and then the above operation was repeated in an order of experimental concentrations from low to high. After the spray treatment of the rice seedlings, they were placed in the shade to air-dry drug liquid, about 5 cm of the stem from a basal part of the stem was cut and fed to the test insects. A glass culture dish with a diameter of 90 mm was prepared, filter paper was placed on the bottom of the dish, then water was added to moisturize. About 5 rice stems were placed in each dish, 10 larvae were introduced, and the culture dish was closed with non-woven fabric and placed in the constant-temperature room for culture. 3 days after the administration, the number of residual live insects was investigated.

Myzus persicae = test: Insecticidal activity against Myzus persicae, Airbrush spray on cabbage leaves; conditions: 50 mg/L, after 48 h, read-out: mortality rate against Myzus persicae
Procedure: as §1, §2
Determination method: a culture dish with a diameter of 6 cm was taken, the bottom of the dish was covered by a layer of filter paper, and an appropriate amount of tap water was added to moisturize the paper. Cabbage leaves with an appropriate size (the diameter was about 3 cm) and 15-30 aphids grown were cut from cabbage plants used to culture Myzus persicae, winged aphids and aphids on the front of the leave were removed, and it was placed in the culture dish while the back of the leave was upward. The pressure of airbrush spray treatment was 10 psi (about 0.7 kg/cm^2), the liquid spray volume was 0.5 mL, and there were 3 replicates for each treatment. After the treatment, the leave was put into an observation room for culture at 25° C. and a relative humidity of 60-70%. After 48 h, the number of live insects was investigated and the mortality rate was calculated.

Mythimna separata = test: Insecticidal activity against Mythimna separata, Airbrush spray on maize leaf pieces; conditions: 72 h, 0.05 mg/L, 3 days after the administration, 3rd-instar larvae, read-out: mortality rate against Mythimna separata
Procedure: as §1, §2
Determination method: maize leaves were cut into 2 cm leaf pieces, and the front and back of each leaf piece were sprayed under an Airbrush spray treatment pressure of 10 psi (approximate to 0.7 kg/cm^2) and with a spray volume of 0.5 mL. After drying in the shade, 10 3rd-instar larvae were inoculated for each treatment, and each treatment was repeated for 3 times. After the treatment, the leaf pieces were put into an observation chamber at 25° C. and with a relative humidity of 60% to 70%, and the number of living larvae was investigated 3 days after the administration of the compounds, and the mortality rates were calculated.

Diamondback moth = test: Insecticidal activity against Diamondback moth, Airbrush spray on cabbage leaf discs; conditions: Plutella xylostella, foliar, 72 h, 3 days after the administration; for mortality at 0.156 µg/mL: 0.156 mg/L, read-out: Mortality rate (%, 3 days after the administration) 0.156 mg/L; for mortality at 0.156 µg/mL / mortality at 0.313 µg/mL / mortality at 10 µg/mL: Diamondback moth; for mortality at 0.313 µg/mL: 0.313 mg/L, read-out: Mortality rate (%, 3 days after the administration) 0.313 mg/L; for mortality at 1.25 µg/mL: 1.25 mg/L, 3rd-instar larvae, read-out: mortality rate against Diamondback moth; for mortality at 10 µg/mL: 10 mg/L, read-out: Mortality rate (%, 3 days after the administration) 10 mg/L
Procedure: as §1, §2
Determination method: cabbage leaves were formed into leaf discs having a diameter of 2 cm using a puncher, and the front and back of each leaf disc were sprayed under an Airbrush spray treatment pressure of 10 psi (approximate to 0.7 kg/cm^2) and with a spray volume of 0.5 mL. After drying in the shade, 10 3rd-instar larvae were inoculated for each treatment, and each treatment was repeated for 3 times. After the treatment, the leaf discs were placed into an observation chamber at 25° C. and with a relative humidity of 60% to 70%, and the number of living larvae was investigated 3 days after the administration of the compounds, and the mortality rates were calculated.

cat flea = test: Insecticidal experiment on cat flea, thin film in culture dish; conditions: Ctenocephalides felis, 72 h, read-out: mortality rate, cat flea
Procedure: 4 mg of the compound to be determined was dissolved in 40 mL of acetone to obtain an acetone solution with a concentration of 100 mg/L. 400 μL of the drug solution was applied on the bottom and sides of a culture dish with an inner diameter of 5.3 cm, then after acetone was evaporated, a thin film of the compound of the present invention was made on the inner wall of the culture dish. The inner wall of the culture dish used was 40 cm^2, and the treatment dosage was 1 μg/cm^2. 10 adult cat fleas (mixed male and female) were put into the dish, and it was stored in a constant-temperature room at 25° C. after being covered. The number of dead insects after 72 h was checked and the mortality rate was calculated. The experiment was repeated for 3 times.

Spodoptera exigua = test: Insecticidal activity against Spodoptera exigua, leaf disc dipping feeding method; conditions: foliar, 72 h, 0.625 mg/L, 3 days after the administration, read-out: mortality rate against Spodoptera exigua
Procedure: After the compound to be determined was dissolved in a mixed solvent of acetone/methanol (1:1), it was diluted with water containing 0.1% (wt) Tween-80 to a desired concentration. […]
Determination method: the activity was tested by using a leaf disc dipping feeding method. Leaf discs were dipped in a drug solution for 10 s, and placed in a culture dish after being air-dried, there were 4 discs in each dish, and a filter paper was placed in the culture dish for moisture retention. 10 test insects of Spodoptera exigua were introduced to each dish, with 3 replicates.
They were placed in a light incubator for culture at a temperature of 25° C. and an illumination of 14hL:10hD. On the 1st, 2nd, and 3rd day after the administration, the number of dead Spodoptera exigua was investigated and the mortality rate was calculated.

Row | SMILES | Mortality rate (%, 3 days after the administration) 10 mg/L [1] | Mortality rate (%, 3 days after the administration) 100 mg/L [1] | mortality at 0.625 µg/mL (Chilo suppressalis) | mortality at 50 µg/mL (Myzus persicae) | mortality at 0.05 µg/mL (Mythimna separata) | mortality at 0.156 µg/mL (Diamondback moth) | mortality at 0.313 µg/mL (Diamondback moth) | mortality at 1.25 µg/mL (Diamondback moth) | mortality at 10 µg/mL (Diamondback moth) | mortality at 1 µg/cm2 (cat flea) | mortality at 0.625 µg/mL (Spodoptera exigua)
1 | C=CCN(C(=O)c1ccccc1)c1cccc(C(=O)Nc2c(Br)cc(C(F)(C(F)(F)F)C(F)(F)F)cc2C(F)(F)F)c1F [Compound 3] | 93.33% | 100% | > 90% | > 90% | > 90% | 100% | 100% | > 90% | 100% | > 90% | > 90%
2 | C=CCN(C(=O)c1ccc(F)cc1)c1cccc(C(=O)Nc2c(Br)cc(C(F)(C(F)(F)F)C(F)(F)F)cc2C(F)(F)F)c1F [Compound 7] | 91.11% | 100% | > 90% | > 90% | > 90% | 100% | 100% | > 90% | 100% | > 90% | > 90%
3 | C#CCN(C(=O)c1ccc(F)cc1)c1cccc(C(=O)Nc2c(I)cc(C(F)(C(F)(F)F)C(F)(F)F)cc2C(F)(F)F)c1F [Compound 36] | 95.56% | 100% | > 90% | > 90% | > 90% | 100% | 100% | > 90% | 100% | > 90% | > 90%
4 | C=CCN(C(=O)c1ccc(F)nc1)c1cccc(C(=O)Nc2c(I)cc(C(F)(C(F)(F)F)C(F)(F)F)cc2C(F)(F)F)c1F [Compound 20] | 100% | 100% | > 90% | > 90% | > 90% | 100% | 100% | > 90% | 100% | > 90% | > 90%
5 | C#CCN(C(=O)c1ccc(F)cc1)c1cccc(C(=O)Nc2c(Br)cc(C(F)(C(F)(F)F)C(F)(F)F)cc2C(F)(F)F)c1F [Compound 35] | 100% | 100% | > 90% | > 90% | > 90% | 100% | 100% | > 90% | 100% | > 90% | > 90%
